The values below come from ChEMBL document CHEMBL6177965, “Sealgamide: An Antitrypanosomal Lipopeptide Isolated from a Marine Okeania sp. Cyanobacterium” (J Nat Prod, 2025).

The subject of test [1] is HeLa. Put plainly: Cytotoxicity against human HeLa cells assessed as inhibition of cell growth incubated for 72 hrs by MTT assay. The format is functional, cell-based. For orientation: Formazan colour is commonly taken as a measure of viable cells.
The subject of test [2] is Trypanosoma brucei rhodesiense. The test can be described thus: Antitrypanosomal activity against Trypanosoma brucei rhodesiense IL-1501 incubated for 69 hrs by Alamar blue staining based analysis. The format is functional, organism-based. The following applies: IL-1501, 69 h.
In test [3] the test system is Plasmodium falciparum. The test can be described thus: Antimalarial activity against Plasmodium falciparum 3D7 infected in RBC incubated for 72 hrs by LDH assay. Type of test: functional, organism-based. Particulars: 3D7, Erythrocyte.

For the compound `CCC[C@@H](C[C@@H](CC(=O)N(C)[C@@H](C(=O)N[C@H](C)C(=O)N[C@H](CC(C)C)C(=O)N(C)[C@@H](CC(C)C)C(=O)N[C@H](C(=O)N(C)[C@H](C(=O)N(C)[C@@H](CCC(N)=O)C(=O)N[C@@H](Cc1ccccc1)C(=O)N(C)[C@@H](CCC(N)=O)C(=O)N(C)[C@@H](Cc1ccc(OC)cc1)C(=O)O)C(C)C)[C@@H](C)O)[C@@H](C)CC)OC)OC`, the IC50 is > 30 µM in test [1], 2.9 µM in test [2] and > 25 µM in test [3].
The corresponding values for `CCC[C@@H](C[C@@H](CC(=O)N(C)[C@@H](C(=O)N(C)[C@H](C)C(=O)N[C@H](CC(C)C)C(=O)N(C)[C@@H](CC(C)C)C(=O)N[C@H](C(=O)N(C)[C@H](C(=O)N(C)[C@@H](CCC(N)=O)C(=O)N[C@@H](Cc1ccccc1)C(=O)N(C)[C@@H](CCC(N)=O)C(=O)N(C)[C@@H](Cc1ccc(OC)cc1)C(=O)OC)C(C)C)[C@@H](C)O)[C@@H](C)CC)OC)OC` are > 30 µM, 0.65 µM and 2.1 µM.
`N=C(N)c1ccc(OCCCCCOc2ccc(C(=N)N)cc2)cc1` [PENTAMIDINE] gave an IC50 in test [2] of 0.009 µM.

The IC50 is the point on the concentration scale where inhibition reaches its midpoint.
